≈ marks a conversion by molar mass, not a printed value.
What was measured:
[1] = test system: S. aureus ATCC 13709; experiment: MIC, antibacterial potency, S. aureus; format: cell-based; conditions: S. aureus
[2] = test system: S. pneumoniae ATCC 51916; experiment: MIC, S. pneumoniae; format: cell-based; conditions: S. pneumoniae

Row | SMILES | MIC, SA [1] [µg/mL] | MIC Spn52 [2] [µg/mL]
1 | CCOc1nc(Nc2cnc3c(c2)c(=O)n(C)c(=O)n3C)nc2[nH]c(CC)c(Br)c12.O=C(O)C(F)(F)F [700,452] | > 64 | > 64
2 | CCc1[nH]c2nc(Sc3cnc4nccnc4c3)nc(N3CC(NC(=O)c4csc(N)n4)C3)c2c1Cl [700,453] | ≤ 0.5 | ≤ 0.5
3 | CCc1[nH]c2nc(Sc3cnc4nccnc4c3)nc(N3CC(NC(=O)c4cc(N)ccn4)C3)c2c1Cl [700,454] | ≤ 0.5 | 1 (≈ 1.88 µM)
4 | CCc1[nH]c2nc(Sc3cnc4nccnc4c3)nc(NCCCn3ccnc3)c2c1Cl [700,455] | 2 (≈ 4.29 µM) | 2 (≈ 4.29 µM)
5 | CCc1[nH]c2nc(Sc3cnc4nccnc4c3)nc(N3CCc4nc(N)sc4C3)c2c1Cl [700,456] | ≤ 0.5 | 4 (≈ 8.06 µM)
6 | CCc1[nH]c2nc(Sc3cnc4nccnc4c3)nc(NC[C@H](C)O)c2c1Cl [700,457] | 1 (≈ 2.4 µM) | 2 (≈ 4.81 µM)
7 | CCc1[nH]c2nc(Oc3cncnc3)nc(N3CC(O)C3)c2c1Cl.O=C(O)C(F)(F)F [700,458] | 2 | 8
8 | CCc1[nH]c2nc(Oc3cccnc3)nc(N3CCN(C(C)=O)CC3)c2c1Cl.O=C(O)C(F)(F)F [700,459] | 16 | 32
9 | CCc1[nH]c2nc(Cc3cccnc3)nc(N3CC(NC(=O)OC(C)(C)C)C3)c2c1Cl [700,461] | 1 (≈ 2.26 µM) | > 64
10 | CCc1[nH]c2nc(Sc3cnc4nccnc4c3)nc(N3CCC[C@H]3CN)c2c1Cl [700,462] | > 64 | 32 (≈ 72.6 µM)
11 | CCc1[nH]c2nc(Sc3cnc4nccnc4c3)nc(N3CC(CN)C3)c2c1Cl [700,463] | 2 (≈ 4.68 µM) | 4 (≈ 9.37 µM)
12 | CCc1[nH]c2nc(Sc3cnc4c(N)nc(N)nc4c3)nc(N3CC(C(=O)O)C3)c2c1Cl.O=C(O)C(F)(F)F.O=C(O)C(F)(F)F [700,464] | > 64 | > 64
13 | CCc1[nH]c2nc(Oc3cccnc3)nc(N3CCN(c4cnccn4)CC3)c2c1Cl.O=C(O)C(F)(F)F [700,465] | 8 | 32
14 | CCc1[nH]c2nc(Oc3cncnc3)nc(Oc3cncnc3)c2c1Cl.O=C(O)C(F)(F)F [700,466] | 4 | 16
15 | CCc1[nH]c2nc(Sc3cnc4nccnc4c3)nc(N3CC(CN)C3)c2c1Br [700,467] | 4 (≈ 8.49 µM) | 16 (≈ 33.9 µM)
16 | CCc1[nH]c2nc(Sc3cnc4nccnc4c3)nc(N3CC(CNS(C)(=O)=O)C3)c2c1Br [700,468] | ≤ 0.5 | 1 (≈ 1.82 µM)
17 | CCc1[nH]c2nc(Sc3cnc4nccnc4c3)nc(N3CC(N)C3)c2c1Br [700,469] | 1 (≈ 2.19 µM) | 2 (≈ 4.37 µM)
18 | CCc1[nH]c2nc(Sc3cnc4nccnc4c3)nc(N3CC(NS(C)(=O)=O)C3)c2c1Br [700,470] | ≤ 0.5 | 1 (≈ 1.87 µM)
19 | CCc1[nH]c2nc(Sc3cnc4sc(NC(C)=O)nc4c3)nc(N3CC(N)C3)c2c1Br [700,471] | 2 (≈ 3.85 µM) | 8 (≈ 15.4 µM)
20 | CCc1[nH]c2nc(Sc3cnc4c(N)nc(N)nc4c3)nc(N(C)CCNC)c2c1Cl.O=C(O)C(F)(F)F.O=C(O)C(F)(F)F [700,472] | 64 | 64
21 | CCOC(=O)Cc1nc(N)c2ncc(Sc3nc(N4CC(O)C4)c4c(Cl)c(CC)[nH]c4n3)cc2n1.O=C(O)C(F)(F)F.O=C(O)C(F)(F)F [700,473] | 32 | 64

Row | SMILES | MIC, SA [1] [µg/mL] | MIC Spn52 [2] [µg/mL]
22 | CCOc1nc(Cc2cccnc2)nc2[nH]c(CC)c(Cl)c12 [700,474] | 8 (≈ 25.3 µM) | 8 (≈ 25.3 µM)
23 | CCOC(=O)c1nc2cc(Sc3nc(N4CC(O)C4)c4c(Br)c(CC)[nH]c4n3)cnc2n(C)c1=O [700,475] | > 64 | > 64
24 | CCOc1nc(Nc2cnc3c(c2)nnn3CC2CC2)nc2[nH]c(CC)c(Br)c12.O=C(O)C(F)(F)F [700,476] | > 64 | > 64
25 | CCc1[nH]c2nc(Oc3cncc(F)c3)nc(Oc3cncc(F)c3)c2c1Cl.O=C(O)C(F)(F)F [700,477] | 1 | 16
26 | CCc1[nH]c2nc(Cc3cccnc3)nc(N(C)C)c2c1Cl [700,478] | 64 (≈ 203 µM) | > 64
27 | CCc1[nH]c2nc(Cc3cccnc3)nc(Oc3cccnc3)c2c1Cl [700,479] | 4 (≈ 10.9 µM) | 32 (≈ 87.5 µM)
28 | CCc1[nH]c2nc(Sc3ccc4c(N)nc(N)nc4c3)nc(N3CCC3)c2c1Cl.O=C(O)C(F)(F)F.O=C(O)C(F)(F)F [700,480] | 16 | > 64
29 | CCc1[nH]c2nc(Sc3cnc4nccnc4c3)nc(OC3CNC3)c2c1Br [700,481] | 8 (≈ 17.5 µM) | 2 (≈ 4.36 µM)
30 | CCc1[nH]c2nc(Nc3cnc4c(c3)nnn4C(C)C)nc(N3CC(O)C3)c2c1Br.O=C(O)C(F)(F)F [700,482] | > 64 | > 64
31 | CCOc1nc(Nc2ccc(Cl)c3ncccc23)nc2[nH]c(CC)c(Br)c12.O=C(O)C(F)(F)F [700,483] | 32 | 32
32 | CCc1[nH]c2nc(Nc3cnc4c(c3)nnn4C(C)C)nc(N3CC(N)C3)c2c1Br.O=C(O)C(F)(F)F.O=C(O)C(F)(F)F [700,484] | 4 | 8
33 | CCc1[nH]c2nc(Nc3cnc4c(c3)nnn4C(C)C)nc(N3CC(NC(=O)OC(C)(C)C)C3)c2c1Br.O=C(O)C(F)(F)F [700,485] | 4 | > 64
34 | CCc1[nH]c2nc(Sc3cnc4nccnc4c3)nc(OC3CNC3)c2c1Cl [700,486] | 16 (≈ 38.7 µM) | 8 (≈ 19.3 µM)
35 | CCc1[nH]c2nc(Sc3cnc4nccnc4c3)nc(N3CC(CNS(C)(=O)=O)C3)c2c1Cl [700,487] | ≤ 0.5 | ≤ 0.5
36 | CCNC(=O)NC1CN(c2nc(Sc3cnc4nccnc4c3)nc3[nH]c(CC)c(Cl)c23)C1 [700,490] | > 64 | 1 (≈ 2.07 µM)
37 | CCNC(=O)NCC1CN(c2nc(Sc3cnc4nccnc4c3)nc3[nH]c(CC)c(Cl)c23)C1 [700,491] | ≤ 0.5 | 1 (≈ 2.01 µM)
38 | CCc1[nH]c2nc(Sc3cnc4c(N)nc(N)nc4c3)nc(OCc3cccnc3)c2c1Cl.O=C(O)C(F)(F)F.O=C(O)C(F)(F)F [700,492] | 8 | > 64
39 | CCc1[nH]c2nc(Sc3cnc4c(N)nc(N)nc4c3)nc(OCCn3ccnc3)c2c1Cl.O=C(O)C(F)(F)F.O=C(O)C(F)(F)F [700,493] | > 64 | > 64
40 | CCc1[nH]c2nc(Sc3cnc4c(N)nc(C)nc4c3)nc(OCCn3ccnc3)c2c1Cl.O=C(O)C(F)(F)F [700,494] | > 64 | > 64
41 | CCc1[nH]c2nc(Cc3cccnc3)nc(N3CC(N)C3)c2c1Cl [700,495] | 64 (≈ 187 µM) | > 64
42 | CCc1[nH]c2nc(Nc3cnc4c(c3)nnn4CC3CC3)nc(N3CC(S(=O)(=O)CC4CC4)C3)c2c1Br.O=C(O)C(F)(F)F [700,496] | > 64 | > 64

Row | SMILES | MIC, SA [1] [µg/mL] | MIC Spn52 [2] [µg/mL]
43 | CCc1[nH]c2nc(Sc3cnc4nccnc4c3)nc(N3CC[C@H](N(C)C)C3)c2c1Cl.O=C(O)C(F)(F)F [700,497] | 1 | 4
44 | CCc1[nH]c2nc(Nc3cnc4c(c3)nnn4CC3CC3)nc(N3CC(O)C3)c2c1Br.O=C(O)C(F)(F)F [700,498] | 16 | > 64
45 | CCc1[nH]c2nc(Sc3cnc4nccnc4c3)nc(N3CC(CNC(=N)N)C3)c2c1Cl.O=C(O)C(F)(F)F [700,502] | 16 | > 64
46 | CCc1[nH]c2nc(Sc3cnc4nccnc4c3)nc(N3CC(NC(=N)N)C3)c2c1Cl.O=C(O)C(F)(F)F [700,503] | 16 | > 64
47 | CCc1[nH]c2nc(Sc3cnc4nccnc4c3)nc(N3CC(NC(=O)CN4CCNCC4)C3)c2c1Cl.O=C(O)C(F)(F)F.O=C(O)C(F)(F)F [700,504] | 4 | 32
48 | CCc1[nH]c2nc(Sc3cnc4nccnc4c3)nc(N3CC(NC(=O)CNC4CCOC4=O)C3)c2c1Cl.O=C(O)C(F)(F)F (stereo not shown) [700,505] | 4 | 32
49 | CCc1[nH]c2nc(Sc3cnc4nccnc4c3)nc(N3CC(NC(=O)COn4nnc5ccccc54)C3)c2c1Cl [700,506] | ≤ 0.5 | 1 (≈ 1.7 µM)
50 | CCc1[nH]c2nc(Sc3cnc4c(C(C)C)nc(N)nc4c3)nc(OCCn3ccnc3)c2c1Cl.O=C(O)C(F)(F)F [700,507] | > 64 | > 64
51 | CCc1[nH]c2nc(Sc3cnc4nccnc4c3)nc(NCCNC(=O)OC(C)(C)C)c2c1Cl.O=C(O)C(F)(F)F [700,508] | 2 | 4
52 | CCc1[nH]c2nc(Sc3cnc4nccnc4c3)nc(NCCN)c2c1Cl.O=C(O)C(F)(F)F [700,509] | 16 | 16
53 | CCc1[nH]c2nc(Sc3cnc4nccnc4c3)nc(NCCN3CCCC3)c2c1Cl.O=C(O)C(F)(F)F [700,510] | > 64 | > 64
54 | CCc1[nH]c2nc(Sc3cnc4nccnc4c3)nc(NCCN3CCNCC3)c2c1Cl.O=C(O)C(F)(F)F.O=C(O)C(F)(F)F [700,511] | > 64 | > 64
55 | CCc1[nH]c2nc(Sc3cnc4nccnc4c3)nc(NCCNC)c2c1Cl.O=C(O)C(F)(F)F [700,512] | > 64 | > 64
56 | CCc1[nH]c2nc(Sc3cnc4nccnc4c3)nc(NCCN(C)C)c2c1Cl.O=C(O)C(F)(F)F [700,513] | > 64 | 32
57 | CCc1[nH]c2nc(Sc3cnc4c(N)nc(C)nc4c3)nc(N3CC(O)C3)c2c1Cl.O=C(O)C(F)(F)F [700,514] | ≤ 0.5 | ≤ 0.5
58 | CCc1[nH]c2nc(Sc3cnc4c(N)nc(C)nc4c3)nc(N3CC(N)C3)c2c1Cl.O=C(O)C(F)(F)F [700,515] | 1 | 1
59 | CCc1[nH]c2nc(Sc3cnc4nccnc4c3)nc(N3CC(CNC(=O)C4CC4)C3)c2c1Cl [700,516] | ≤ 0.5 | 1 (≈ 2.02 µM)
60 | CCc1[nH]c2nc(Sc3cnc4nccnc4c3)nc(N3CC(CNC(=O)C4CCC4)C3)c2c1Cl [700,517] | ≤ 0.5 | 2 (≈ 3.93 µM)
61 | CCc1[nH]c2nc(Sc3cnc4nccnc4c3)nc(N3CC(CNC(=O)CCN4CCCCC4)C3)c2c1Cl [700,518] | 4 (≈ 7.07 µM) | 4 (≈ 7.07 µM)
62 | CCc1[nH]c2nc(Sc3cnc4nccnc4c3)nc(N3CC(CNC(=O)CN4C(=O)CSC4=O)C3)c2c1Cl [700,519] | 1 (≈ 1.71 µM) | 1 (≈ 1.71 µM)

From US10047105B2, “Gyrase inhibitors” (Merck Sharp & Dohme Corp., priority 2009, dated 2018)
